Results: patent US11566002B2, “Substituted tetrahydrocyclopenta[C]pyrroles, substituted dihydropyrrolizines, analogues thereof, and methods using same” (priority 2018, dated 2023)

test system: HBV rcDNA; assay: HepDE19 assay with bDNA quantitation of HBV rcDNA; type: cell-based, hepatitis B virus; details: HepDE19 cells, Tet-free medium, 7 day-incubation, rcDNA measured by Quantigene 2.0 bDNA assay, top concentration 25 μM; read-out: DE-19 bDNA EC50
Description: HepDE19 Assay with bDNA Quantitation of HBV rcDNA:
HepDE19 cell culture system is a HepG2 (human hepatocarcinoma) derived cell line that supports HBV DNA replication and cccDNA formation in a tetracycline (Tet)-regulated manner and produces HBV rcDNA and a detectable reporter molecule dependent on the production and maintenance of cccDNA (Guo, et al., 2007, J. Virol. 81:12472-12484).
HepDE19 (50,000 cells/well) were plated in 96-well collagen-coated tissue-culture treated microtiter plates in DMEM/F12 medium supplemented with 10% fetal bovine serum, 1% penicillin-streptomycin and 1 μg/mL tetracycline and incubated in a humidified incubator at 37° C. and 5% CO2 overnight. Next day, the cells were switched to fresh medium without tetracycline and incubated for 4 hours at 37° C. and 5% CO2. The cells were treated with fresh Tet-free medium with compounds at concentrations starting at 25 μM and a serial, ½ log, 8-point, titration series in duplicate. The final DMSO concentration in the assay was 0.5%. The plates were incubated for 7 days in a humidified incubator at 37° C. and 5% CO2. Following a 7 day-incubation, the level of rcDNA present in the inhibitor-treated wells was measured using a Quantigene 2.0 bDNA assay kit (Affymetrix, Santa Clara, Calif.) with HBV specific custom probe set and manufacturers instructions. Concurrently, the effect of compounds on cell viability was assessed using replicate plates, plated at a density of 5,000 cells/well and incubated for 4 days, to determine the ATP content as a measure of cell viability using the cell-titer glo reagent (CTG; Promega Corporation, Madison, Wis.) as per manufacturer's instructions. The plates were read using a Victor luminescence plate reader (PerkinElmer Model 1420 Multilabel counter) and the relative luminescence units (RLU) data generated from each well was calculated as % inhibition of the untreated control wells and analyzed using XL-Fit module in Microsoft Excel to determine EC50 and EC90 (bDNA) and CC50 (CTG) values using a 4-parameter curve fitting algorithm.
Representative compounds of the invention were tested for their abilities to inhibit formation of relaxed circular DNA (rcDNA) in a HepDE19 assay, as described elsewhere herein.

SMILES | EC50 [nM]
CCn1cc2c(c1C(=O)Nc1ccc(F)c(Cl)c1)CCC2NC(=O)OCc1ccn(C)n1 (single isomer, unassigned) [Compound 27, (1-Methyl-1H-pyrazol-3-yl)methyl (1-((3-chloro-4-fluorophenyl)carbamoyl)-2-ethyl-2,4,5,6-tetrahydrocyclopenta[c]pyrrol-4-yl)carbamate] | 1500
CCn1cc2c(c1C(=O)Nc1ccc(F)c(Cl)c1)CCC2NC(=O)OCc1ccn(C)n1 (single isomer, unassigned) [Compound 28, (1-Methyl-1H-pyrazol-3-yl)methyl (1-((3-chloro-4-fluorophenyl)carbamoyl)-2-ethyl-2,4,5,6-tetrahydrocyclopenta[c]pyrrol-4-yl)carbamate] | 230
Cn1cc2c(c1C(=O)Nc1ccc(F)c(Cl)c1)CCCC2NS(=O)(=O)C1CC1 (single isomer, unassigned) [Compound 30, N-(3-Chloro-4-fluorophenyl)-4-(cyclopropanesulfonamido)-2-methyl-4,5,6,7-tetrahydro-2H-isoindole-1-carboxamide] | 2100
Cn1cc2c(c1C(=O)Nc1ccc(F)c(Cl)c1)CCC2NC(=O)OCc1ncco1 (single isomer, unassigned) [Compound 34, Oxazol-2-ylmethyl (1-((3-chloro-4-fluorophenyl)carbamoyl)-2-methyl-2,4,5,6-tetrahydrocyclopenta[c]pyrrol-4-yl)carbamate] | 80
Cn1cc2c(c1C(=O)Nc1ccc(F)c(Cl)c1)CCC2NC(=O)OCc1ncco1 (single isomer, unassigned) [Compound 35, Oxazol-2-ylmethyl (1-((3-chloro-4-fluorophenyl)carbamoyl)-2-methyl-2,4,5,6-tetrahydrocyclopenta[c]pyrrol-4-yl)carbamate] | 1800
Cn1cc2c(c1C(=O)Nc1ccc(F)c(Cl)c1)CCC2NC(=O)OCc1cnco1 (single isomer, unassigned) [Compound 36, Oxazol-5-ylmethyl (1-((3-chloro-4-fluorophenyl)carbamoyl)-2-methyl-2,4,5,6-tetrahydrocyclopenta[c]pyrrol-4-yl)carbamate] | 20
Cn1cc2c(c1C(=O)Nc1ccc(F)c(Cl)c1)CCC2NC(=O)OCc1cnco1 (single isomer, unassigned) [Compound 37, Oxazol-5-ylmethyl (1-((3-chloro-4-fluorophenyl)carbamoyl)-2-methyl-2,4,5,6-tetrahydrocyclopenta[c]pyrrol-4-yl)carbamate] | 2600
Cn1cnc(COC(=O)NC2CCn3c(C(=O)Nc4ccc(F)c(Cl)c4)ccc32)n1 (single isomer, unassigned) [Compound 40, (1-Methyl-1H-1,2,4-triazol-3-yl)methyl (5-((3-chloro-4-fluorophenyl)carbamoyl)-2,3-dihydro-1H-pyrrolizin-1-yl)carbamate] | 6600
Cn1cnc(COC(=O)NC2CCn3c(C(=O)Nc4ccc(F)c(Cl)c4)ccc32)n1 (single isomer, unassigned) [Compound 41, (1-Methyl-1H-1,2,4-triazol-3-yl)methyl (5-((3-chloro-4-fluorophenyl)carbamoyl)-2,3-dihydro-1H-pyrrolizin-1-yl)carbamate] | ≥ 25000
Cn1cnc(COC(=O)NC2CCc3c2c(Br)n(C)c3C(=O)Nc2ccc(F)c(Cl)c2)n1 (single isomer, unassigned) [Compound 47, (1-Methyl-1H-1,2,4-triazol-3-yl)methyl (3-bromo-1-((3-chloro-4-fluorophenyl)carbamoyl)-2-methyl-2,4,5,6-tetrahydrocyclopenta[c]pyrrol-4-yl)carbamate] | 3100
Cn1cnc(COC(=O)NC2CCc3c2c(Br)n(C)c3C(=O)Nc2ccc(F)c(Cl)c2)n1 (single isomer, unassigned) [Compound 48, (1-Methyl-1H-1,2,4-triazol-3-yl)methyl (3-bromo-1-((3-chloro-4-fluorophenyl)carbamoyl)-2-methyl-2,4,5,6-tetrahydrocyclopenta[c]pyrrol-4-yl)carbamate] | 10
Cn1cc2c(c1C(=O)Nc1ccc(F)c(Cl)c1)CCC2NC(=O)OCCC#N (single isomer, unassigned) [Compound 49, 2-Cyanoethyl (1-((3-chloro-4-fluorophenyl)carbamoyl)-2-methyl-2,4,5,6-tetrahydrocyclopenta[c]pyrrol-4-yl)carbamate] | 60
Cn1cc2c(c1C(=O)Nc1ccc(F)c(Cl)c1)CCC2NC(=O)OCCC#N (single isomer, unassigned) [Compound 50, 2-Cyanoethyl (1-((3-chloro-4-fluorophenyl)carbamoyl)-2-methyl-2,4,5,6-tetrahydrocyclopenta[c]pyrrol-4-yl)carbamate] | 3000
Cn1cnc(COC(=O)NC2CCc3c2c(Cl)n(C)c3C(=O)Nc2ccc(F)c(Cl)c2)n1 (single isomer, unassigned) [Compound 51, (1-Methyl-1H-1,2,4-triazol-3-yl)methyl (3-chloro-1-((3-chloro-4-fluorophenyl)carbamoyl)-2-methyl-2,4,5,6-tetrahydrocyclopenta[c]pyrrol-4-yl)carbamate] | 10
Cn1cnc(COC(=O)NC2CCc3c2c(Cl)n(C)c3C(=O)Nc2ccc(F)c(Cl)c2)n1 (single isomer, unassigned) [Compound 52, (1-Methyl-1H-1,2,4-triazol-3-yl)methyl (3-chloro-1-((3-chloro-4-fluorophenyl)carbamoyl)-2-methyl-2,4,5,6-tetrahydrocyclopenta[c]pyrrol-4-yl)carbamate] | 310
Cn1cc2c(c1C(=O)Nc1ccc(F)c(Cl)c1)CCC2NC(=O)OCC1(C(N)=O)CC(F)(F)C1 (single isomer, unassigned) [Compound 55, (1-Carbamoyl-3,3-difluorocyclobutyl)methyl(1-((3-chloro-4-fluorophenyl)carbamoyl)-2-methyl-2,4,5,6-tetrahydrocyclopenta[c]pyrrol-4-yl)carbamate] | 4400
Cn1cc2c(c1C(=O)Nc1ccc(F)c(Cl)c1)CCC2NC(=O)OCC1(C(N)=O)CC(F)(F)C1 (single isomer, unassigned) [Compound 56, (1-Carbamoyl-3,3-difluorocyclobutyl)methyl (1-((3-chloro-4-fluorophenyl)carbamoyl)-2-methyl-2,4,5,6-tetrahydrocyclopenta[c]pyrrol-4-yl)carbamate] | 600
Cn1cc2c(c1C(=O)Nc1ccc(F)c(Cl)c1)CCC2NC(=O)OCc1nc[nH]n1 (single isomer, unassigned) [Compound 57, (1H-1,2,4-Triazol-3-yl)methyl (1-((3-chloro-4-fluorophenyl)carbamoyl)-2-methyl-2,4,5,6-tetrahydrocyclopenta[c]pyrrol-4-yl)carbamate] | 50

same assay, conditions: Hepatitis B virus, HepDE19, 168 h, HepDE19 cells, Tet-free medium, 7 day-incubation, rcDNA measured by Quantigene 2.0 bDNA assay, top concentration 25 μM; read-out: DE-19 bDNA EC50

SMILES | EC50 [nM]
Cn1ccc(COC(=O)NC2CCCc3c2cn(C)c3C(=O)Nc2ccc(F)c(Cl)c2)n1 (single isomer, unassigned) [Compound 31, (1-Methyl-1H-pyrazol-3-yl)methyl (1-((3-chloro-4-fluorophenyl)carbamoyl)-2-methyl-4,5,6,7-tetrahydro-2H-isoindol-4-yl)carbamate] | 500
Cn1cnc(COC(=O)NC2CCCc3c2cn(C)c3C(=O)Nc2ccc(F)c(Cl)c2)n1 (single isomer, unassigned) [Compound 33, (1-Methyl-1H-1,2,4-triazol-3-yl)methyl (1-((3-chloro-4-fluorophenyl)carbamoyl)-2-methyl-4,5,6,7-tetrahydro-2H-isoindol-4-yl)carbamate] | 30

same assay, conditions: read-out: DE-19 bDNA EC50; HepDE19 cells, Tet-free medium, 7 day-incubation, rcDNA measured by Quantigene 2.0 bDNA assay, top concentration 25 μM

SMILES | EC50 [nM]
COC(=O)NC1CCCc2c1cn(C)c2C(=O)Nc1ccc(F)c(Cl)c1 (single isomer, unassigned) [Compound 29, Methyl (1-((3-chloro-4-fluorophenyl)carbamoyl)-2-methyl-4,5,6,7-tetrahydro-2H-isoindol-4-yl)carbamate] | 470
COC(=O)NC1CCn2c(C(=O)Nc3ccc(F)c(Cl)c3)ccc21 (single isomer, unassigned) [Compound 38, Methyl (5-((3-chloro-4-fluorophenyl)carbamoyl)-2,3-dihydro-1H-pyrrolizin-1-yl)carbamate] | 4700
COC(=O)NC1CCn2c(C(=O)Nc3ccc(F)c(Cl)c3)ccc21 (single isomer, unassigned) [Compound 39, Methyl (5-((3-chloro-4-fluorophenyl)carbamoyl)-2,3-dihydro-1H-pyrrolizin-1-yl)carbamate] | 15000
